Assay results taken from patent US20110092544A1, “FUNGICIDAL PYRIDINES” (E.I. DU PONT DE nemours and company, priority 2008, published 2011).

How the values were obtained:
Type in all cases: in vivo
Botrytis cinerea = test: Test F: tomato botrytis, preventive spray on tomato seedlings, visual disease rating
Description: (§1) General protocol for preparing test suspensions for Tests A-H: The test compounds were first dissolved in acetone in an amount equal to 3% of the final volume and then suspended at the desired concentration (in ppm) in acetone and purified water (50/50 mix) containing 250 ppm of the surfactant Trem® 014 (polyhydric alcohol esters). The resulting test suspensions were then used in tests A-H. Spraying a 200 ppm test suspension to the point of run-off on the test plants was the equivalent of a rate of 500 g/ha.
The test suspension was sprayed to the point of run-off on tomato seedlings. The following day the seedlings were inoculated with a spore suspension of Botrytis cinerea (the causal agent of tomato botrytis) and incubated in saturated atmosphere at 20° C. for 48 h, and then moved to a growth chamber at 24° C. for 3 additional days, after which time disease ratings were visually made.
(§2) Results for Tests A-H are given in Table A. In the table, a rating of 100 indicates 100% disease control and a rating of 0 indicates no disease control (relative to the controls). A dash (-) indicates no test results. All results are for compounds tested at 200 ppm except where the compound number is followed by “*” which indicates the compound was tested at 40 ppm.

Septoria tritici = test: Test C: wheat leaf blotch, preventive spray on wheat seedlings, visual disease rating
Description: as §1
The test suspension was sprayed to the point of run-off on wheat seedlings. The following day the seedlings were inoculated with a spore suspension of Septoria tritici (the causal agent of wheat leaf blotch) and incubated in a saturated atmosphere at 20° C. for 48 h, and moved to a growth chamber at 20° C. for 19 additional days, after which time disease ratings were visually made.
as §2

[1] = test system: Erysiphe graminis f. sp. tritici; test: Test A: wheat powdery mildew, preventive spray on wheat seedlings, visual disease rating
Description: as §1
The test suspension was sprayed to the point of run-off on wheat seedlings. The following day the seedlings were inoculated with a spore dust of Erysiphe graminis f. sp. tritici (the causal agent of wheat powdery mildew) and incubated in a growth chamber at 20° C. for 8 days, after which time disease ratings were visually made.
as §2

[2] = test system: Puccinia recondite f. sp. tritici; test: Test B: wheat leaf rust, preventive spray on wheat seedlings, visual disease rating
Description: as §1
The test suspension was sprayed to the point of run-off on wheat seedlings. The following day the seedlings were inoculated with a spore suspension of Puccinia recondite f. sp. tritici (the causal agent of wheat leaf rust) and incubated in a saturated atmosphere at 20° C. for 24 h, and then moved to a growth chamber at 20° C. for 7 days, after which time disease ratings were visually made.
as §2

Alternaria solani = test: Test E: tomato early blight, preventive spray on tomato seedlings, visual disease rating
Description: as §1
The test suspension was sprayed to the point of run-off on tomato seedlings. The following day the seedlings were inoculated with a spore suspension of Alternaria solani (the causal agent of tomato early blight) and incubated in a saturated atmosphere at 27° C. for 48 h, and then moved to a growth chamber at 20° C. for 5 days, after which time disease ratings were visually made.
as §2

Septoria nodorum = test: Test D: wheat glume blotch, preventive spray on wheat seedlings, visual disease rating
Description: as §1
The test suspension was sprayed to the point of run-off on wheat seedlings. The following day the seedlings were inoculated with a spore suspension of Septoria nodorum (the causal agent of wheat glume blotch) and incubated in a saturated atmosphere at 20° C. for 48 h, and then moved to a growth chamber at 20° C. for 7 days, after which time disease ratings were visually made.
as §2

[3] = 200 ppm, 100 = 100% disease control, 0 = no control
[4] = 40 ppm (compound number followed by *)

## Cc1ncc(-c2ccccc2F)c(-c2cc(O)cc(O)c2)c1-c1ccc(F)cc1 [Compound 100]
Botrytis cinerea; [3]
  Test F rating (% disease control): 100%
Septoria tritici; [3]
  Test C rating (% disease control): 76%
[1]; [3]
  Test A rating (% disease control): 76%
[2]; [3]
  Test B rating (% disease control): 89%
Alternaria solani; [3]
  Test E rating (% disease control): 0%
Septoria nodorum; [3]
  Test D rating (% disease control): 0%

## COc1cc(OC)cc(-c2c(C3CCOCC3)cnc(C)c2-c2ccc(F)cc2)c1 [Compound 59]
Botrytis cinerea; [3]
  Test F rating (% disease control): 100%
Septoria tritici; [3]
  Test C rating (% disease control): 97%
[1]; [3]
  Test A rating (% disease control): 79%
[2]; [3]
  Test B rating (% disease control): 100%
Alternaria solani; [3]
  Test E rating (% disease control): 100%
Septoria nodorum; [3]
  Test D rating (% disease control): 92%

## COc1ccc(-c2c(C)ncc(C(C)(O)CO)c2-c2cc(OC)cc(OC)c2)cc1 (single isomer, unassigned) [Compound 85]
Botrytis cinerea; [3]
  Test F rating (% disease control): 96%
Septoria tritici; [3]
  Test C rating (% disease control): 43%
[1]; [3]
  Test A rating (% disease control): 43%
[2]; [3]
  Test B rating (% disease control): 61%
Alternaria solani; [3]
  Test E rating (% disease control): 0%
Septoria nodorum; [3]
  Test D rating (% disease control): 0%

## COc1cc(OC)cc(-c2c(Cn3ccc(C(F)(F)F)n3)cnc(C)c2-c2c(F)cc(F)cc2F)c1 [Compound 108]
Botrytis cinerea; [3]
  Test F rating (% disease control): 87%
Septoria tritici; [3]
  Test C rating (% disease control): 71%
[1]; [3]
  Test A rating (% disease control): 64%
[2]; [3]
  Test B rating (% disease control): 85%
Alternaria solani; [3]
  Test E rating (% disease control): 0%
Septoria nodorum; [3]
  Test D rating (% disease control): 0%

## COc1cc(OC)cc(-c2c(C(C)C#N)cnc(C)c2-c2c(F)cc(F)cc2F)c1 (stereo not drawn) [Compound 125]
Botrytis cinerea; [4]
  Test F rating (% disease control): 100%
Septoria tritici; [4]
  Test C rating (% disease control): 96%
[1]; [4]
  Test A rating (% disease control): 96%
[2]; [4]
  Test B rating (% disease control): 99%
Alternaria solani; [4]
  Test E rating (% disease control): 99%
Septoria nodorum; [4]
  Test D rating (% disease control): 90%

## COc1cc(OC)cc(-c2c(-c3ccc(F)cc3)cnc(C)c2-c2ccccc2F)c1 [Compound 94]
Botrytis cinerea; [3]
  Test F rating (% disease control): 98%
Septoria tritici; [3]
  Test C rating (% disease control): 91%
[1]; [3]
  Test A rating (% disease control): 21%
[2]; [3]
  Test B rating (% disease control): 54%
Alternaria solani; [3]
  Test E rating (% disease control): 0%
Septoria nodorum; [3]
  Test D rating (% disease control): 0%

## COc1cc(OC)cc(-c2c(C=O)cnc(C)c2-c2c(F)ccc(OC)c2F)c1 [Compound 113]
Botrytis cinerea; [4]
  Test F rating (% disease control): 79%
Septoria tritici; [4]
  Test C rating (% disease control): 76%
[1]; [4]
  Test A rating (% disease control): 0%
[2]; [4]
  Test B rating (% disease control): 89%
Alternaria solani; [4]
  Test E rating (% disease control): 9%
Septoria nodorum; [4]
  Test D rating (% disease control): 0%

## COc1cc(OC)cc(-c2c(C=O)cnc(C)c2-c2c(F)cc(F)cc2F)c1 [Compound 112]
Botrytis cinerea; [4]
  Test F rating (% disease control): 96%
Septoria tritici; [4]
  Test C rating (% disease control): 93%
[1]; [4]
  Test A rating (% disease control): 96%
[2]; [4]
  Test B rating (% disease control): 80%
Alternaria solani; [4]
  Test E rating (% disease control): 9%
Septoria nodorum; [4]
  Test D rating (% disease control): 0%

## COc1cc(OC)cc(-c2c(Cn3cc(C#N)cn3)cnc(C)c2-c2c(F)cc(F)cc2F)c1 [Compound 123]
Botrytis cinerea; [4]
  Test F rating (% disease control): 69%
Septoria tritici; [4]
  Test C rating (% disease control): 53%
[1]; [4]
  Test A rating (% disease control): 0%
[2]; [4]
  Test B rating (% disease control): 0%
Alternaria solani; [4]
  Test E rating (% disease control): 0%
Septoria nodorum; [4]
  Test D rating (% disease control): 0%

## COc1cc(OC)cc(-c2c(Cn3cncn3)cnc(C)c2-c2c(F)cc(F)cc2F)c1 [Compound 104]
Botrytis cinerea; [3]
  Test F rating (% disease control): 99%
Septoria tritici; [3]
  Test C rating (% disease control): 98%
[1]; [3]
  Test A rating (% disease control): 100%
[2]; [3]
  Test B rating (% disease control): 100%
Alternaria solani; [3]
  Test E rating (% disease control): 100%
Septoria nodorum; [3]
  Test D rating (% disease control): 99%

## COc1cc(OC)cc(-c2c(C(C)=O)cnc(C)c2-c2c(F)ccc(OC)c2F)c1 [Compound 105]
Botrytis cinerea; [3]
  Test F rating (% disease control): 98%
Septoria tritici; [3]
  Test C rating (% disease control): 93%
[1]; [3]
  Test A rating (% disease control): 100%
[2]; [3]
  Test B rating (% disease control): 99%
Alternaria solani; [3]
  Test E rating (% disease control): 0%
Septoria nodorum; [3]
  Test D rating (% disease control): 0%

## COc1cc(OC)c(Cl)c(-c2c(-c3ccccc3F)cnc(C)c2-c2ccc(F)cc2)c1 [Compound 126]
Botrytis cinerea; [4]
  Test F rating (% disease control): 100%
Septoria tritici; [4]
  Test C rating (% disease control): 99%
[1]; [4]
  Test A rating (% disease control): 90%
[2]; [4]
  Test B rating (% disease control): 100%
Alternaria solani; [4]
  Test E rating (% disease control): 97%
Septoria nodorum; [4]
  Test D rating (% disease control): 100%
